Values joined by “and” are separate entries in the source; they are usually repeats but may differ in a detail not shown here. Identical values can stand only once. Numbers after ± are expanded uncertainties.
Columns and labels:
[1] = molar heat capacity at constant pressure; conditions: 101 kPa, Liquid, Small sample (50 mg) DSC
[2] = 101 kPa, Liquid, Vibrating tube method
[3] = molar heat capacity at constant pressure; xn = mol fraction of the nth substance listed; conditions: 101 kPa, Liquid, Small sample (50 mg) DSC, x2 = 0
[4] = xn = mol fraction of the nth substance listed; conditions: 101 kPa, Liquid, Vibrating tube method, x2 = 0

Row | Compound | molar heat capacity at constant pressure ([1]; 285.15 K) | molar heat capacity at constant pressure ([1]; 288.15 K) | molar heat capacity at constant pressure ([1]; 293.15 K) | molar heat capacity at constant pressure ([1]; 298.15 K) | molar heat capacity at constant pressure ([1]; 303.15 K) | molar heat capacity at constant pressure ([1]; 308.15 K) | molar heat capacity at constant pressure ([1]; 313.15 K) | mass density ([2]; 285.15 K) | mass density ([2]; 288.15 K) | mass density ([2]; 293.15 K) | mass density ([2]; 298.15 K) | mass density ([2]; 303.15 K) | mass density ([2]; 308.15 K) | mass density ([2]; 313.15 K) | molar heat capacity at constant pressure ([3]; 288.15 K) | molar heat capacity at constant pressure ([3]; 293.15 K) | molar heat capacity at constant pressure ([3]; 298.15 K) | molar heat capacity at constant pressure ([3]; 303.15 K) | molar heat capacity at constant pressure ([3]; 308.15 K) | molar heat capacity at constant pressure ([3]; 313.15 K) | further results
1 | CCCCCCCCC [nonane] | 278.38 ± 5.6 J/K/mol | 279.6 ± 5.6 J/K/mol | 281.72 ± 5.6 J/K/mol | 283.86 ± 5.7 J/K/mol | 286.11 ± 5.7 J/K/mol | 288.4 ± 5.8 J/K/mol | 290.76 ± 5.8 J/K/mol | 724.54 ± 0.31 kg/m3 | 722.22 ± 0.32 kg/m3 | 718.35 ± 0.32 kg/m3 | 714.46 ± 0.32 kg/m3 | 710.55 ± 0.32 kg/m3 | 706.63 ± 0.32 kg/m3 | 702.7 ± 0.32 kg/m3 |  |  |  |  |  |  | 
2 | CCCCCCCC [octane] + N#Cc1ccccc1 |  |  |  |  |  |  |  |  |  |  |  |  |  |  | 250.1 ± 5 J/K/mol | 252.06 ± 5 J/K/mol | 254.08 ± 5.1 J/K/mol | 256.16 ± 5.1 J/K/mol | 258.28 ± 5.2 J/K/mol | 260.45 ± 5.2 J/K/mol | molar heat capacity at constant pressure ([3]; 283.15 K): 248.2 ± 5 J/K/mol; molar heat capacity at constant pressure ([3]; 318.15 K): 262.66 ± 5.2 J/K/mol; mass density ([4]; 283.15 K): 710.76 ± 0.22 kg/m3; mass density ([4]; 288.15 K): 706.76 ± 0.22 kg/m3; mass density ([4]; 293.15 K): 702.74 ± 0.22 kg/m3; mass density ([4]; 298.15 K): 698.71 ± 0.23 kg/m3; mass density ([4]; 303.15 K): 694.66 ± 0.23 kg/m3; mass density ([4]; 308.15 K): 690.58 ± 0.23 kg/m3; mass density ([4]; 313.15 K): 686.49 ± 0.23 kg/m3; mass density ([4]; 318.15 K): 682.37 ± 0.23 kg/m3
3 | N#Cc1ccccc1 [benzonitrile] | 163.9 ± 3.3 J/K/mol | 164.61 ± 3.3 J/K/mol and 164.63 ± 3.3 J/K/mol | 165.82 ± 3.3 J/K/mol | 167.06 ± 3.3 J/K/mol | 168.32 ± 3.4 J/K/mol | 169.59 ± 3.4 J/K/mol | 170.87 ± 3.4 J/K/mol | 1012.21 ± 0.31 kg/m3 | 1009.55 ± 0.31 kg/m3 | 1005.12 ± 0.3 kg/m3 | 1000.69 ± 0.3 kg/m3 | 996.26 ± 0.3 kg/m3 | 991.83 ± 0.3 kg/m3 | 987.4 ± 0.3 kg/m3 |  |  |  |  |  |  | molar heat capacity at constant pressure ([1]; 283.15 K): 163.43 ± 3.3 J/K/mol; molar heat capacity at constant pressure ([1]; 318.15 K): 172.15 ± 3.4 J/K/mol; mass density ([2]; 283.15 K): 1013.99 ± 0.31 kg/m3; mass density ([2]; 318.15 K): 982.96 ± 0.3 kg/m3
4 | CCCCCCCC [octane] |  | 250.1 ± 5 J/K/mol | 252.06 ± 5 J/K/mol | 254.08 ± 5.1 J/K/mol | 256.16 ± 5.1 J/K/mol | 258.28 ± 5.2 J/K/mol | 260.45 ± 5.2 J/K/mol |  | 706.76 ± 0.22 kg/m3 | 702.74 ± 0.22 kg/m3 | 698.71 ± 0.23 kg/m3 | 694.66 ± 0.23 kg/m3 | 690.58 ± 0.23 kg/m3 | 686.49 ± 0.23 kg/m3 |  |  |  |  |  |  | molar heat capacity at constant pressure ([1]; 283.15 K): 248.2 ± 5 J/K/mol; molar heat capacity at constant pressure ([1]; 318.15 K): 262.66 ± 5.2 J/K/mol; mass density ([2]; 283.15 K): 710.76 ± 0.22 kg/m3; mass density ([2]; 318.15 K): 682.37 ± 0.23 kg/m3
5 | CCCCCCCCC [nonane] + N#Cc1ccccc1 |  |  |  |  |  |  |  |  |  |  |  |  |  |  | 279.6 ± 5.6 J/K/mol | 281.72 ± 5.6 J/K/mol | 283.86 ± 5.7 J/K/mol | 286.11 ± 5.7 J/K/mol | 288.4 ± 5.8 J/K/mol | 290.76 ± 5.8 J/K/mol | molar heat capacity at constant pressure ([3]; 285.15 K): 278.38 ± 5.6 J/K/mol; mass density ([4]; 285.15 K): 724.54 ± 0.31 kg/m3; mass density ([4]; 288.15 K): 722.22 ± 0.32 kg/m3; mass density ([4]; 293.15 K): 718.35 ± 0.32 kg/m3; mass density ([4]; 298.15 K): 714.46 ± 0.32 kg/m3; mass density ([4]; 303.15 K): 710.55 ± 0.32 kg/m3; mass density ([4]; 308.15 K): 706.63 ± 0.32 kg/m3; mass density ([4]; 313.15 K): 702.7 ± 0.32 kg/m3

From the NIST ThermoML archive (doi:10.1021/je100145f)
